Measured values as given in patent US5945426A, “Derivatives of pyrimidine for treating acute cerebrovascular disorders” (Nippon Shinyaku Co., Ltd., priority 1994, dated 1999).
Counter-ions that a name gives are not always drawn.

Legend:
[1] = test system: pyramidal cells in the hippocampal CA-1 subfield; experiment: Delayed Neuronal Death (DND) Inhibitory Activity in Gerbils (transient ischemia, bilateral common carotid artery occlusion); assay type: in vivo; details: for DND inhibition (score of neuronal death in the hippocampal CA-1 subfield): given at reperfusion after 5-minute ischemia, score 0 (0-10% death) to 4 (75-100% death), control 4.00, n=5, **: p < 0.01 (Wilcoxon's U test)
From the text: Delayed Neuronal Death (DND) Inhibitory Activity in Gerbils
The delayed neuronal death protective effect of the compound of the invention was confirmed by an experiment using gerbils. This test is the most widely used for all relevant in vivo evaluation protocols and it is reported that any drug showing DND inhibitory activity in this test system can be expected to be clinically effective in humans [GENDAI-IRYO, 24, 129-133 (1992), Neurology 1987, 37, 1281-1287).
Male gerbils weighing 60-80 g were anesthetized with pentobarbital sodium 35 mg/kg i.p. and placed in supine position. After the skin in the cervical region was incised, the bilateral common carotid arteries were exposed and sutures were placed around each artery. Both ends of each suture was introduced into a polyethylene tube and in suturing the incised wound, the tube was secured to the cervical skin with the suture emerged from the other end of the tube. On the following day, with the animal under no anesthesia, both ends of the suture were gently pulled out and the carotid artery snared by the suture was urged in a bent position into the tube to thereby occlude the carotid artery. After a transient ischemic loading of 5 minutes' duration by occlusion of the bilateral common carotid arteries, the arteries were reperfused. After 7 days, the brain was excised and fixed. A section centered around the hippocampus was prepared and Nissle-stained with 0.05% cresyl violet and the pyramidal cells in the hippocampal CA-1 subfield were microscopically examined for degeneration and death. The degree of neuronal death was scored according to the following criteria.
Criteria for evaluation of neuronal death in the hippocampal CA-1 subfield

Acute Toxicity Study = assay type: in vivo
Method: Male SD rats (Slc:SD, Japan SLC) were used. The rats were purchased at 7 weeks of age and the animals which went through a week-long quarantine and acclimation were used in groups of 6. The dose volume was 5 ml/kg for intraperitoneal administration and 10 ml/kg for intravenous administration. […] The drug solutions were prepared using physiological saline and filtered through a 0.22 μm bacterial filter.

NMDA receptor = experiment: NMDA-Induced Convulsion Inhibitory Activity; assay type: in vivo, Mice; details: 20 mg/kg, i.p. 30 minutes before NMDA 200 mg/kg i.p.
Method: NMDA-Induced Convulsion Inhibitory Activity
Mice were intraperitoneally dosed with 200 mg/kg of N-methyl-D-aspartate (NMDA) and observed for the consequent convulsion and death over a period of 30 minutes after administration. As test drugs, the compound of Example 1, compound of Example 2, compound of Reference Example 10, and compound of Reference Example 12 were used and each was administered intraperitoneally 30 minutes before administration of NMDA.

[2] = test system: cerebral infarction (middle cerebral artery occlusion); experiment: Protection of Cerebral Infarction in Rats With Middle Cerebral Artery Occlusion; assay type: in vivo, Male SD rats; details: 0.125 mg/kg, intravenously after middle cerebral artery occlusion
From the text: Protection of Cerebral Infarction in Rats With Middle Cerebral Artery Occlusion
The cerebral infarction protective effect of the compound of the invention was confirmed in a rat middle cerebral artery occlusion model. This is an animal model of brain regional ischemia which is similar to human cerebral infarction and it is known that the model is useful as a therapeutic model as well (Cerebral Apoplexy Experiment Handbook, 91-97, 1990, published by ICP). Any drug showing cerebral infarction protective activity in this test system can be expected to be clinically effective in humans.
Male SD rats aged 7-8 weeks were anesthetized with ketamin hydrochloride 120-150 mg/kg, i.p. and the head was placed in lateral recumbent position on an operation table. […] Then, the frontal sections were photographed and using an image processor, the areas of infarction were measured. The percentage of the infarct area in the frontal section 6 mm caudal to frontal rostrum, that is at the striatal level, relative to the total area of the tissue section and the total infarct area of the 5 frontal sections prepared at 2 mm intervals from the frontal rostrum was calculated and the percentage of the total infarct area relative to the total area of all the sections was calculated. […]

delayed neuronal death = details: background art; cited from earlier work
[3] = background art; cited from earlier work

Row | Compound | general condition of animals (Acute Toxicity Study; rat, in vivo, ip) | DND inhibition (score of neuronal death in the hippocampal CA-1 subfield) ([1]; 50 mg/kg i.p.) | inhibition of NMDA-induced convulsion (NMDA receptor) | other results
1 | Cc1nc(OCCCCCCN2CCCCC2)cc(-c2ccc(F)cc2)n1 [Example 3, 4-(4-Fluorophenyl)-2-methyl-6-(6-piperidinohexyloxy)primidine hydrochloride] | no remarkable change |  |  | DND inhibition (score of neuronal death in the hippocampal CA-1 subfield) ([1]; 30 mg/kg, i.p.): 0.60
2 | Cc1nc(OCCCCCN2CCCCC2)cc(-c2ccc(F)cc2)n1.Cl [Example 1, 4-(4-Fluorophenyl)-2-methyl-6-(5-piperidinopentyloxy)pyrimidine hydrochloride] |  | 0.60 | did not inhibit | protection activity against the delayed neuronal death, post-ischemia dosing ([1]; single dose after a lapse of 1-2 hours after ischemia): exhibited a protection activity against the delayed neuronal death; general condition of animals (Acute Toxicity Study; intraperitoneal, observed daily for 7 days): no remarkable change; LD50 at 168 h (Acute Toxicity Study; rat, in vivo, ip, intraperitoneal): 65.8 mg/kg; LD50 at 168 h (Acute Toxicity Study; rat, in vivo, intravenous): 22.8 mg/kg; inhibition of neuronal death in the rat model of persistent brain ischemia [2]: markedly inhibited neuronal death
3 | Cc1cc(OCCCCN2CCCCC2)nc(-c2ccc(F)cc2)n1.Cl [Example 4, 2-(4-Fluorophenyl)-4-methyl-6-(4-piperidinobutoxy)pyrimidine hydrochloride] | no remarkable change | 0.60 |  | 
4 | Cc1cc(-c2ccc(F)cc2)cc(OCCCCCN2CCCCC2)n1.Cl [Example 18, 4-(4-Fluorophenyl)-2-methyl-6-(5-piperidinopentyloxy)pyridine hydrochloride] | no remarkable change | 0.80 |  | 
5 | CCCn1cnc2c1c(=O)n(CCCCC(C)=O)c(=O)n2C [propentofylline] |  |  |  | effect against delayed neuronal death (delayed neuronal death): effective against delayed neuronal death
6 | Cc1nc(OCCCN2CCCCC2)cc(-c2ccc(F)cc2)n1.Cl [Reference Example 10, 4-(4-Fluorophenyl)-2-methyl-6-(3-piperidinopropoxy)pyrimidine hydrochloride] | no remarkable change | 0.60 | did not inhibit | 
7 | Cc1cc(OCCCN2CCCCC2)nc(-c2ccc(F)cc2)n1.Cl [Reference Example 12, 2-(4-Fluorophenyl)-4-methyl-6-(3-piperidinopropoxy)pyrimidine hydrochloride] |  |  | did not inhibit | 
8 | Cc1cc(-c2ccc(F)cc2)cc(OCCCN2CCCCC2)n1.Cl [Example 16, 4-(4-Fluorophenyl)-2-methyl-6-(3-piperidinopropoxy)pyridine hydrochloride] | no remarkable change | 0.60 |  | 
9 | Cc1nc(OC(C)CCCN2CCCCC2)cc(-c2ccc(F)cc2)n1.Cl (centres unmarked) [Example 21, 4-(4-Fluorophenyl)-2-methyl-6-(1-methyl-4-piperidinobutoxy)pyrimidine hydrochloride] | no remarkable change | 0.60 |  | 
10 | Cc1nc(OCCCCN2CCCCC2)cc(-c2ccc(F)cc2)n1.Cl [Example 2, 4-(4-Fluorophenyl)-2-methyl-6-(4-piperidinobutoxy)pyrimidine hydrochloride] | no remarkable change | 0.80 | did not inhibit | 
11 | Cc1cc(OCCN2CCN(c3ccccc3)CC2)nc(-c2ccccc2)n1 [4-methyl-2-phenyl-6-[2-(4-phenylpiperazin-1-yl)ethyloxy]pyrimidine] |  |  |  | α-sympatholytic activity (sedation, hypotension, and vasodilation) [3]: has α-sympatholytic activity (sedation, hypotension, and vasodilation)
